Data as given in the supplement of paper PMC10307832.

Experiments:
Experiment in all cases: relative viability (nuclei count vs DMSO), 5 days (fraction); higher = more cells survive
IPA-3 + Olaparib = compound: C1=CC=C2C(=C1)C=CC(=C2SSC3=C(C=CC4=CC=CC=C43)O)O [IPA-3] + O=C(c1cc(Cc2n[nH]c(=O)c3ccccc23)ccc1F)N1CCN(C(=O)C2CC2)CC1 [Olaparib] (partner 8 µM)
In short: (§1)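 Lung cancer cell lines were seeded in 1536-well plates and dosed by pin tool the next day, with either a single drug or a fixed anchor-drug dose combined with five library-drug doses (not always all listed) spaced in √10 steps. Five days later, one step fixed the cells and stained their nuclei (final 0.05% Triton X-100, 1% formaldehyde, 1 ug/ml Hoechst), and nuclei were counted on 4× images. Relative viability is the nuclei count in treated wells divided by the count in vehicle wells, and each value is the median of duplicate plates.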

Doramapimod + Linsitinib = compound: Cc1ccc(-n2nc(C(C)(C)C)cc2NC(=O)Nc2ccc(OCCN3CCOCC3)c3ccccc23)cc1 [Doramapimod] + C[C@]1(O)C[C@@H](c2nc(-c3ccc4ccc(-c5ccccc5)nc4c3)c3c(N)nccn32)C1 [Linsitinib] (partner 1 µM)
In short: as §1

IPA-3 + Tozasertib = compound: C1=CC=C2C(=C1)C=CC(=C2SSC3=C(C=CC4=CC=CC=C43)O)O [IPA-3] + Cc1cc(Nc2cc(N3CCN(C)CC3)nc(Sc3ccc(NC(=O)C4CC4)cc3)n2)n[nH]1 [Tozasertib] (partner 0.1 µM)
In short: as §1

Doramapimod + Phenformin = compound: Cc1ccc(-n2nc(C(C)(C)C)cc2NC(=O)Nc2ccc(OCCN3CCOCC3)c3ccccc23)cc1 [Doramapimod] + N=C(N)NC(=N)NCCc1ccccc1 [Phenformin] (partner 250 µM)
In short: as §1

Row | Cell Line | relative viability (IPA-3 + Olaparib; first compound 0.2 µM) | relative viability (IPA-3 + Olaparib; first compound 0.6325 µM) | relative viability (IPA-3 + Olaparib; first compound 2 µM) | relative viability (IPA-3 + Olaparib; first compound 6.325 µM) | relative viability (IPA-3 + Olaparib; first compound 20 µM) | relative viability (Doramapimod + Linsitinib; first compound 0.02 µM) | relative viability (Doramapimod + Linsitinib; first compound 0.06325 µM) | relative viability (Doramapimod + Linsitinib; first compound 0.2 µM) | relative viability (Doramapimod + Linsitinib; first compound 0.6325 µM) | relative viability (Doramapimod + Linsitinib; first compound 2 µM) | relative viability (IPA-3 + Tozasertib; first compound 0.2 µM) | relative viability (IPA-3 + Tozasertib; first compound 0.6325 µM) | relative viability (IPA-3 + Tozasertib; first compound 2 µM) | relative viability (IPA-3 + Tozasertib; first compound 6.325 µM) | relative viability (IPA-3 + Tozasertib; first compound 20 µM) | relative viability (Doramapimod + Phenformin; first compound 0.02 µM) | relative viability (Doramapimod + Phenformin; first compound 0.06325 µM) | relative viability (Doramapimod + Phenformin; first compound 0.2 µM) | relative viability (Doramapimod + Phenformin; first compound 0.6325 µM) | relative viability (Doramapimod + Phenformin; first compound 2 µM)
1 | Calu-6 | 0.629 | 0.503 | 0.617 | 0.596 | 0.426 | 1.02 | 0.978 | 0.942 | 1.04 | 0.966 | – | – | – | – | – | – | – | – | – | –
2 | SW 900 | 0.684 | 0.683 | 0.811 | 0.832 | 1.03 | – | – | – | – | – | 0.56 | 0.53 | 0.496 | 0.566 | 0.56 | 0.612 | 0.665 | 0.676 | 0.76 | 0.635
3 | NCI-H1623 | – | – | – | – | – | – | – | – | – | – | 0.418 | 0.433 | 0.432 | 0.47 | 0.433 | 0.635 | 0.636 | 0.57 | 0.354 | 0.544
4 | NCI-H3122 | 0.655 | 0.608 | 0.57 | 0.644 | 0.588 | 1.04 | 1.07 | 1.04 | 0.971 | 0.988 | 0.431 | 0.4 | 0.381 | 0.509 | 0.428 | 0.381 | 0.423 | 0.407 | 0.38 | 0.36
5 | NCI-H2347 | 0.568 | 0.486 | 0.565 | 0.592 | 0.612 | 1.04 | 0.974 | 0.96 | 1.01 | 0.846 | 0.585 | 0.598 | 0.614 | 0.593 | 0.656 | 0.429 | – | 0.429 | 0.386 | 0.398
6 | HCC-44 | 0.961 | 0.983 | 1.03 | 1.02 | 1.02 | 0.662 | 0.669 | 0.675 | 0.634 | 0.626 | 1.09 | 0.953 | 0.996 | 0.71 | 0.93 | 0.267 | 0.247 | 0.22 | – | 0.241
7 | HCC-78 | 0.885 | 0.836 | 0.805 | 0.881 | 0.932 | 0.399 | 0.429 | 0.466 | 0.527 | 0.514 | 0.508 | 0.429 | 0.448 | 0.402 | 0.398 | 0.704 | 0.819 | 0.743 | 0.813 | 0.543
8 | COR-L23 | 0.314 | 0.34 | 0.406 | 0.281 | 0.301 | 0.962 | 0.917 | 0.827 | 0.933 | 0.931 | 0.197 | 0.201 | 0.344 | 0.25 | 0.165 | 0.436 | 0.467 | 0.398 | 0.422 | 0.391
9 | NCI-H1993 | 1.22 | 1.08 | 0.995 | 1.23 | 1.08 | 0.663 | 0.708 | 0.795 | 0.753 | 0.755 | 0.625 | 0.578 | 0.586 | 0.56 | 0.601 | 0.512 | 0.484 | 0.543 | 0.542 | 0.548
10 | NCI-H2405 | 0.994 | 0.832 | 0.939 | 0.865 | 0.9 | 0.973 | 0.869 | 0.933 | 1.27 | 0.852 | 0.796 | 0.755 | 0.727 | 0.748 | 0.774 | 0.402 | 0.374 | 0.335 | 0.423 | 0.316
11 | NCI-H2126 | 1.05 | 0.886 | 0.877 | 0.875 | 1.06 | 0.668 | 0.678 | 0.642 | 0.693 | 0.625 | 0.922 | 0.78 | 0.875 | 0.842 | 0.872 | 0.527 | 0.526 | 0.505 | 0.496 | 0.489
12 | NCI-H1944 | 0.452 | 0.409 | 0.405 | 0.435 | 0.395 | 1.05 | 1.14 | 1.03 | 1.31 | 1.08 | 0.263 | 0.268 | 0.264 | 0.246 | 0.26 | 0.181 | 0.201 | 0.196 | 0.227 | 0.166
13 | NCI-H1648 | 1.05 | 0.906 | 0.84 | 0.739 | 0.873 | – | – | – | – | – | 0.753 | 0.545 | 0.646 | 0.391 | 0.482 | – | – | – | – | –
14 | NCI-H1792 | 0.506 | 0.48 | – | 0.395 | 0.225 | 0.434 | 0.434 | 0.536 | 0.615 | 0.351 | – | – | – | – | – | 0.389 | 0.381 | 0.217 | 0.476 | 0.214
15 | NCI-H1563 | – | – | – | – | – | 1.17 | 1.23 | 1.25 | 1.25 | 1.2 | – | – | – | – | – | 0.653 | 0.682 | 0.653 | 0.806 | 0.739
16 | NCI-H2342 | 0.468 | 0.4 | 0.559 | 0.46 | 0.473 | – | – | – | – | – | 0.526 | 0.505 | 0.6 | 0.57 | 0.596 | 0.617 | 0.594 | 0.593 | 0.704 | 0.497
17 | NCI-H522 | 0.52 | 0.663 | 0.699 | 0.571 | 0.671 | – | – | – | – | – | 0.596 | 0.535 | 0.72 | 0.621 | 0.565 | 0.6 | 0.573 | 0.621 | 0.677 | 0.603
18 | EBC-1 | 0.904 | 0.668 | 0.715 | 0.607 | 0.493 | 0.924 | 0.811 | 0.826 | 0.937 | 0.817 | – | – | – | – | – | – | – | – | – | –
19 | NCI-H1650 | 0.947 | 0.74 | 0.877 | 0.715 | 0.746 | – | – | – | – | – | 0.485 | 0.414 | 0.489 | 0.421 | 0.517 | 0.464 | 0.419 | 0.482 | 0.655 | 0.233
20 | IA-LM | 1.22 | 0.814 | 0.906 | 0.651 | 0.814 | 0.498 | 0.549 | 0.701 | 0.587 | 0.731 | – | – | – | – | – | – | – | – | – | –
21 | NCI-H1703 | 0.807 | 0.479 | 0.38 | 0.459 | 0.581 | 0.637 | 0.601 | 0.68 | 0.908 | 0.532 | – | – | – | – | – | – | – | – | – | –
